Measurements taken from ChEMBL document CHEMBL2202952, “Marthiapeptide A, an anti-infective and cytotoxic polythiazole cyclopeptide from a 60 L scale fermentation of the deep sea-derived Marinactinospora thermotolerans SCSIO 00652” (J Nat Prod, 2012).
In brackets after ≈: the same amount, converted by molar mass. Activity calls are given as the source filed them. No cut-off for these calls is given here.

Columns and labels:
[1] = Antimicrobial activity against Aeromonas hydrophila subsp. hydrophila ATCC 7966; type: functional
Escherichia coli [2] = assay: Antimicrobial activity against Escherichia coli DH5[alpha]; type: functional
Bacillus subtilis = assay: Antimicrobial activity against Bacillus subtilis ATCC 6633; type: functional
Escherichia coli [3] = assay: Antimicrobial activity against Escherichia coli ATCC 25922; type: functional
Micrococcus luteus = assay: Antimicrobial activity against Micrococcus luteus; type: functional
Bacillus thuringiensis = assay: Antimicrobial activity against Bacillus thuringiensis; type: functional
Staphylococcus aureus = assay: Antimicrobial activity against Staphylococcus aureus ATCC 29213; type: functional
MCF7 [4] = assay: Cytotoxicity against human MCF7 cells by SRB method; type: functional, cell-based
NCI-H460 [5] = assay: Cytotoxicity against human NCI-H460 cells by SRB method; type: functional, cell-based
HepG2 [6] = assay: Cytotoxicity against human HepG2 cells by SRB method; type: functional, cell-based
HepG2 [7] = assay: Potency index, ratio of IC50 for cisplatin to IC50 for test compound against human HepG2 cells by SRB method; type: functional
NCI-H460 [8] = assay: Potency index, ratio of IC50 for cisplatin to IC50 for test compound against human NCI-H460 cells by SRB method; type: functional
SF-268 [9] = assay: Potency index, ratio of IC50 for cisplatin to IC50 for test compound against human SF268 cells by SRB method; type: functional
MCF7 [10] = assay: Potency index, ratio of IC50 for cisplatin to IC50 for test compound against human MCF7 cells by SRB method; type: functional
Nucleic Acid [11] = assay: Binding affinity to human telomeric intramolecular HTG21 G-quadruplex DNA at 20 uM by CD spectroscopy; type: nucleic-acid assay
SF-268 [12] = assay: Cytotoxicity against human SF268 cells by SRB method; type: functional, cell-based
Nucleic Acid [13] = assay: Effect on F21T G-quadruplex DNA thermal stabilization assessed as change in melting temperature at 2 uM by FRET; type: nucleic-acid assay

Structure (SMILES)	MIC [1]	MIC (Escherichia coli [2])	MIC (Bacillus subtilis)	MIC (Escherichia coli [3])	MIC (Micrococcus luteus)	MIC (Bacillus thuringiensis)	MIC (Staphylococcus aureus)	IC50 (MCF7 [4])	IC50 (NCI-H460 [5])	IC50 (HepG2 [6])	Ratio IC50 (HepG2 [7])	Ratio IC50 (NCI-H460 [8])	Ratio IC50 (SF-268 [9])	Ratio IC50 (MCF7 [10])	Activity (Nucleic Acid [11])	IC50 (SF-268 [12])	ΔTm (Nucleic Acid [13])
CC[C@H]1OC(=O)[C@H](C)[C@@H](O[C@H]2C[C@@](C)(OC)[C@@H](O)[C@H](C)O2)[C@H](C)[C@@H](O[C@@H]2O[C@H](C)C[C@H](N(C)C)[C@H]2O)[C@](C)(O)C[C@@H](C)C(=O)[C@H](C)[C@@H](O)[C@]1(C)O [ERYTHROMYCIN]	4 µg/mL (≈ 5.45 µM)	64 µg/mL (≈ 87.2 µM)	< 1 µg/mL	32 µg/mL (≈ 43.6 µM)	< 1 µg/mL	< 1 µg/mL	16 µg/mL (≈ 21.8 µM)	–	–	–	–	–	–	–	–	–	–
NC[C@H]1O[C@H](O[C@H]2[C@H](O)[C@@H](O[C@H]3O[C@H](CO)[C@@H](O)[C@H](N)[C@H]3O)[C@H](N)C[C@@H]2N)[C@H](O)[C@@H](O)[C@@H]1O [KANAMYCIN]	< 1 µg/mL	32 µg/mL (≈ 66 µM)	< 1 µg/mL	16 µg/mL (≈ 33 µM)	32 µg/mL (≈ 66 µM)	4 µg/mL (≈ 8.26 µM)	8 µg/mL (≈ 16.5 µM)	–	–	–	–	–	–	–	–	–	–
CC[C@H](C)[C@@H]1NC(=O)[C@@H](Cc2ccccc2)NC(=O)[C@@H]2CSC(=N2)c2csc(n2)-c2csc(n2)-c2csc(n2)[C@@H](C)NC1=O [MARTHIAPEPTIDE A]	> 128 µg/mL	> 128 µg/mL	4 µg/mL (≈ 6.01 µM)	> 128 µg/mL	2 µg/mL (≈ 3 µM)	2 µg/mL (≈ 3 µM)	8 µg/mL (≈ 12 µM)	430 nM	470 nM	520 nM	5	5	5	5	inactive	380 nM	0.9 °C
